For one assay, the target named is PI3Kα (Homo sapiens (Human), UniProt P42336). Kind of assay: Inhibition of PI3Kα (ADP-Glo kinase activity assay, ATP to ADP conversion). The assay is classed as biochemical. The note with it: 25 μM PIP2:PS, 60 μM ATP, 30 min reaction, luminescence. How it is done: Quantification of ATP to ADP conversion as a measure of PI3Kα activity. Active PI3Kα (Life Technologies), in the presence or absence of PI3Kα inhibitor, was reacted with PIP2:PS (Life Technologies), a substrate specifically optimized for use with Class I PI3 kinases, and ultrapure ATP (Promega). The conversion of ATP to ADP by PI3Kα was measured as luminescence signal via Promega ADP-Glo kinase activity assay. Assay was validated using published PI3Kα inhibitors LY294002, PI-103, BYL719, GDC0198 and also DMSO vehicle control.
Chain of PI3Kα (P42336 whole entry): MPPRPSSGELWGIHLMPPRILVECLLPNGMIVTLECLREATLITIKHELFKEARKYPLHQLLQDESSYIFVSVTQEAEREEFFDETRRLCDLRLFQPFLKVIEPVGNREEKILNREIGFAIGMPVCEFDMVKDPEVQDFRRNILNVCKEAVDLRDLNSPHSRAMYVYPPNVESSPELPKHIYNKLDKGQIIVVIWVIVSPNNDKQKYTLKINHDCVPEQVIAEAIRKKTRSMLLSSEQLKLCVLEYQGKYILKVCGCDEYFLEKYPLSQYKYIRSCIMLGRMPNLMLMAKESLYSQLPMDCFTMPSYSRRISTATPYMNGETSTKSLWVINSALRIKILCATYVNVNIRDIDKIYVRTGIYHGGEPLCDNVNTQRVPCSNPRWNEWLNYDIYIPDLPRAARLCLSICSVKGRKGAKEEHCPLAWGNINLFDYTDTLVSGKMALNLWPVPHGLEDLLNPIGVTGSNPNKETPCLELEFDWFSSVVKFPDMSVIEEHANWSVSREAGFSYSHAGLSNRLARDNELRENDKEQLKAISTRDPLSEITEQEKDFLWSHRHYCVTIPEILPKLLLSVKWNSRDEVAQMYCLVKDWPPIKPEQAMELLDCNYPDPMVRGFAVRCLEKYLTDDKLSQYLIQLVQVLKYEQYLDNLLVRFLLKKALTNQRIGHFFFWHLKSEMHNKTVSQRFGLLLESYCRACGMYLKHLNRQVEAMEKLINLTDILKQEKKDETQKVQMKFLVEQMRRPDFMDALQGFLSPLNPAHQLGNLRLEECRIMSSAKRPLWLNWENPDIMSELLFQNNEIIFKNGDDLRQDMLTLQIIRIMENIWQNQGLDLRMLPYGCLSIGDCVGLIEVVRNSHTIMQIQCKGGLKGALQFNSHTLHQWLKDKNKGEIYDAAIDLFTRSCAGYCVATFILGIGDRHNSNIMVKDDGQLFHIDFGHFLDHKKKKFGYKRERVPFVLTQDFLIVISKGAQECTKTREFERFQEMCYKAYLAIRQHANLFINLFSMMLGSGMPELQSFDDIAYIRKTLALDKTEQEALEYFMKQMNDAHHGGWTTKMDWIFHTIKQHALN
Chain of PI3Kα (P27986 whole entry partner): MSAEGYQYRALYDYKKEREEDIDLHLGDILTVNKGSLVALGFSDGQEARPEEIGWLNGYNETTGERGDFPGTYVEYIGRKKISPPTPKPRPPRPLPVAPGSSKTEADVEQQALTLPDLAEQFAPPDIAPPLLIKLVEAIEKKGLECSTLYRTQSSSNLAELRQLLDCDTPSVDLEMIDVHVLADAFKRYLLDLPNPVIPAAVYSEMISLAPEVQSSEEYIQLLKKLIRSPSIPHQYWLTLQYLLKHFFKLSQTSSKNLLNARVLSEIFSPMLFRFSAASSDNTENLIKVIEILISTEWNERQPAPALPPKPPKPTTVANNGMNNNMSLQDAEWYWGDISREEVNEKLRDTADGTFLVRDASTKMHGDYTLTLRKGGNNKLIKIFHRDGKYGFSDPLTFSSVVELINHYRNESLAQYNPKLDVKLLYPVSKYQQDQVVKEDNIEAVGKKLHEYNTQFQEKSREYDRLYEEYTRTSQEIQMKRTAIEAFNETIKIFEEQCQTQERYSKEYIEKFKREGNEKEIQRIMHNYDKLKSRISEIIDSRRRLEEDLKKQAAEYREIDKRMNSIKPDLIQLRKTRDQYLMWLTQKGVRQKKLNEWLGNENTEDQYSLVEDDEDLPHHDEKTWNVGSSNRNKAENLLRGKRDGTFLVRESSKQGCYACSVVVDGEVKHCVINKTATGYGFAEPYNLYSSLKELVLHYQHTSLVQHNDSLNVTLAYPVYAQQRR
Compounds were prepared at 100× final concentration as a 12-point, 1:3 serial-dilution in DMSO series, with DMSO control as 12th point. Compound was then diluted in (25 mM HEPES pH 7.5, 1 mM EGTA, 0.3% CHAPS) prior to addition to PI3Kα. Active PI3Kα diluted to 0.24 ng/μL (1.1 nM) in (50 mM HEPES pH 7.5, 6 mM MgCl2, 1 mM EGTA, 200 mM NaCl, 0.03% CHAPS, 8 mM DTT) was incubated with compound for 0 hr and 3 hr prior to the start of the reaction. 25 μM PIP2:PS and 60 μM ATP were diluted from stock in (25 mM HEPES pH 7.5, 1 mM EGTA, 0.3% CHAPS) and added to initiate the PI3Kα reaction. Reaction time was 30 minutes. ATP to ADP conversion was measured in Luminescence Counts on DTX880 Plate Reader (Beckman Coulter). Compound IC50s were reported using GraphPad Prism software. Analytical method was non-linear regression, 4-parameter curve fit with bottom fit to validated PI3Kα inhibitor reference controls and no top fit (floating top).

Assay [1] concerns (Ser-473) pAKT in B103 (Rat Neuroblastoma) cells. Kind of assay: pAKT protocol: loss of (Ser-473) pAKT by AlphaScreen in insulin-stimulated B103 cells. The assay is classed as cell-based. The following applies: (Ser-473) pAKT/total AKT IC50, 2-hour pretreatment, 2.5 μg/mL insulin 20 minutes. On the procedure:
Inhibition of the PI3K-AKT-mTOR pathway was measured by quantifying the loss of (Ser-473) pAKT using AlphaScreen (Perkin Elmer). B103 (Rat Neuroblastoma) cells were seeded in serum containing medium (High Glucose DMEM (-Phenol Red)+10% FBS+2× Glutamax+1 mM Sodium Pyruvate+10 mM HEPES+1× Non-Essential Amino Acids+1× Pen/Strep) on a 96-well tissue culture treated plate and grown for 20 hours. Cells were then serum starved in serum free medium (High Glucose DMEM (-Phenol Red)+1× Glutamax+1 mM Sodium Pyruvate+1× Pen/Strep) for 6 hours prior to a 2-hour pretreatment with inhibitors of the pathway, including reference inhibitor LY294002. These inhibitors were prepared at a 200× final concentration as a 6-point, 1:3 serial dilution in DMSO series, with DMSO as the 7th point. The inhibitors were then diluted in experimental medium (High Glucose DMEM (-Phenol Red)+1× Glutamax+1 mM Sodium Pyruvate+1× Pen/Strep+25 mM HEPES+0.1% BSA) and combined with the cells at 1× final concentration in 0.5% DMSO. […] Cells were promptly lysed using Perkin Elmer proprietary lysis buffer and the (Ser-473) pAKT and total AKT contained in the lysate was measured by AlphaScreen. In AlphaScreen, donor beads were coated with streptavidin to capture one of the antibodies, which is biotinylated. Acceptor beads were coated with Protein A to immobilize the other antibody. In the presence of target protein, the two antibodies bring the donor and acceptor beads close together, generating signal. The amount of light emission is directly proportional to the amount of target protein present in the sample. For each inhibitor tested: the ratio of measured (Ser-473) pAKT/totalAKT was plotted in GraphPad Prism as a 7-point, non-linear regression, 4-parameter curve with bottom constrained to reference control bottom and unconstrained top anchored to DMSO.

Consider 25 molecules from patent publication US11492348B2, “Tri-substituted aryl and heteroaryl derivatives as modulators of PI3-kinase and autophagy pathways” (Neuropore Therapies, Inc., priority 2018, dated 2022).

With `C=C(c1ccccc1)c1cc(-c2cnc(N)nc2)nc(N2CCOCC2)c1` [Compound 126, 5-(6-morpholino-4-(1-phenylvinyl)pyridin-2-yl)pyrimidin-2-amine], the “PI3Ka IC50” value at PI3Kα turned out to be 0.27 µM. For the same molecule, the IC50 in assay [1] was 0.49 µM.
The like results for `Nc1ncc(-c2cc(N3CCOCC3)cc(S(=O)(=O)c3ccc4ccoc4c3)c2)cn1` [Compound 112, 5-(3-(benzofuran-6-ylsulfonyl)-5-morpholinophenyl)pyrimidin-2-amine] were, in that order, 2.3 µM and 22.3 µM.
The like results for `CN(C)C(=O)N1CC(S(=O)(=O)c2cc(-c3cnc(N)nc3)cc(N3CCOCC3)c2)C1` [Compound 95, 3-((3-(2-aminopyrimidin-5-yl)-5-morpholinophenyl)sulfonyl)-N,N-dimethylazetidine-1-carboxamide] were, in that order, 0.12 µM and 5.19 µM.
The like results for `Nc1ncc(-c2cc(S(=O)(=O)c3ccccc3Cl)cc(N3CCOCC3)n2)cn1` [Compound 139, 5-(4-((2-chlorophenyl)sulfonyl)-6-morpholinopyridin-2-yl)pyrimidin-2-amine] were, in that order, 0.017 µM and 0.016 µM.
In the case of `Nc1ncc(-c2cc(N3CCOCC3)cc(S(=O)(=O)C3CCOC3)c2)c(C(F)(F)F)n1` (stereo not drawn) [Compound 72, 5-(3-morpholino-5-((tetrahydrofuran-3-yl)sulfonyl)phenyl)-4-(trifluoromethyl)pyrimidin-2-amine], at PI3Kα, the “PI3Ka IC50” value came out at 0.46 µM. In addition, in assay [1], the IC50 was determined as 9.13 µM.
The matching figures for `Nc1ncc(-c2cc(N3CCOCC3)cc(S(=O)(=O)C3CCCCC3)c2)cn1` [Compound 49, 5-(3-(cyclohexylsulfonyl)-5-morpholinophenyl)pyrimidin-2-amine]: 0.49 µM and 31.1 µM.
The like results for `O=S(=O)(c1cc(-c2cnc(NC3CC3)nc2)cc(N2CCOCC2)c1)C1CCOC1` (stereo not drawn) [Compound 103, N-cyclopropyl-5-(3-morpholino-5-((tetrahydrofuran-3-yl)sulfonyl)phenyl)pyrimidin-2-amine] were, in that order, 0.68 µM and 5.81 µM.
The matching figures for `Nc1ncc(-c2cc(N3CCOCC3)cc(S(=O)(=O)Cc3ccc4[nH]cnc4c3)c2)cn1` [Compound 63, 5-(3-(((1H-benzo[d]imidazol-5-yl)methyl)sulfonyl)-5-morpholinophenyl)pyrimidin-2-amine]: 0.47 µM and 3.71 µM.
For `Nc1ncc(-c2cc(N3CCOCC3)cc(S(=O)(=O)c3ccccc3)n2)cn1` [Compound 117, 5-(4-morpholino-6-(phenylsulfonyl)pyridin-2-yl)pyrimidin-2-amine], the “PI3Ka IC50” value on PI3Kα was 3.3 µM. Also, in assay [1], the IC50 amounted to 17.3 µM.
Turning to `Nc1cc(C(F)(F)F)c(-c2cc(N3CCOCC3)cc(S(=O)(=O)[C@@H]3CCOC3)c2)cn1` [Compound 71, (R)-5-(3-morpholino-5-((tetrahydrofuran-3-yl)sulfonyl)phenyl)-4-(trifluoromethyl)pyridin-2-amine], the “PI3Ka IC50” value on PI3Kα amounted to 9.1 µM. In assay [1], the IC50 is 11.2 µM.
The like results for `Nc1ncc(-c2cc(N3CCOCC3)cc(S(=O)(=O)c3coc4ccccc34)c2)cn1` [Compound 109, 5-(3-(benzofuran-3-ylsulfonyl)-5-morpholinophenyl)pyrimidin-2-amine] were, in that order, 1.2 µM and 15 µM.
The like results for `Nc1ncc(-c2cc(N3CCOCC3)cc(S(=O)(=O)C3CN(C(=O)Cc4ccc(F)cc4)C3)c2)cn1` [Compound 78, 1-(3-((3-(2-aminopyrimidin-5-yl)-5-morpholinophenyl)sulfonyl)azetidin-1-yl)-2-(4-fluorophenyl)ethan-1-one] were, in that order, 0.18 µM and 4.52 µM.
Regarding `Nc1ncc(-c2cc(N3CCOCC3)cc(S(=O)(=O)Cc3ccc(N4CCOCC4)cc3)c2)cn1` [Compound 58, 5-(3-morpholino-5-((4-morpholinobenzyl)sulfonyl)phenyl) pyrimidin-2-amine], the IC50 in assay [1] is 41.3 µM.
With `Nc1ncc(-c2cc(N3CCOCC3)cc(S(=O)(=O)C3CN(C(=O)C4CC4)C3)c2)cn1` [Compound 77, (3-((3-(2-aminopyrimidin-5-yl)-5-morpholinophenyl)sulfonyl)azetidin-1-yl)(cyclopropyl)methanone], the “PI3Ka IC50” value on PI3Kα was determined as 0.10 µM. For the same molecule, the IC50 in assay [1] came out at 3.19 µM.
The matching figures for `COCNC(=O)N1CC(S(=O)(=O)c2cc(-c3cnc(N)nc3)cc(N3CCOCC3)c2)C1` [Compound 94, 3-((3-(2-aminopyrimidin-5-yl)-5-morpholinophenyl)sulfonyl)-N-(methoxymethyl)azetidine-1-carboxamide]: 0.11 µM and 19.8 µM.
As for `CN(C)c1ncc(-c2cc(N3CCOCC3)cc(S(=O)(=O)c3ccccc3)c2)cn1` [Compound 4, N,N-dimethyl-5-(3-morpholino-5-(phenylsulfonyl)phenyl)pyrimidin-2-amine], the “PI3Ka IC50” value at PI3Kα is 11 µM.
Still for that read-out and setting: with `Cc1cc(N)nnc1-c1cc(N2CCOCC2)cc(S(=O)(=O)Cc2ccc(F)cc2F)c1` [Compound 99, 6-(3-((2,4-difluorobenzyl)sulfonyl)-5-morpholinophenyl)-5-methylpyridazin-3-amine] the figure was 4.3 µM; with `Nc1ncc(-c2cc(N3CCOCC3)cc(S(=O)(=O)c3ccc(N4CCOCC4)cc3)c2)cn1` [Compound 36, 5-(3-morpholino-5-((4-morpholinophenyl)sulfonyl)phenyl)pyrimidin-2-amine], 1.1 µM; with `Cc1cn2cc(-c3cc(N4CCOCC4)cc(S(=O)(=O)Cc4ccccc4)c3)cnc2n1` [Compound 34, 4-(3-(benzylsulfonyl)-5-(2-methylimidazo[1,2-a]pyrimidin-6-yl)phenyl)morpholine], 13 µM.
The same measure, in the same setting: with `Nc1ccc(-c2cc(N3CCOCC3)cc(S(=O)(=O)[C@@H]3CCOC3)c2)c(C(F)(F)F)n1` [Compound 105, (R)-5-(3-morpholino-5-((tetrahydrofuran-3-yl)sulfonyl)phenyl)-6-(trifluoromethyl)pyridin-2-amine] the figure was 1.7 µM.
The same measure, in the same setting: with `CC1CN(c2cc(S(=O)(=O)c3ccccc3)cc(-c3cnc(N)nc3)n2)CC(C)O1` (stereo not drawn) [Compound 150, 5-(6-(2,6-dimethylmorpholino)-4-(phenylsulfonyl)pyridin-2-yl)pyrimidin-2-amine] the figure was 0.45 µM.
Take `Nc1ncc(-c2cc(S(=O)(=O)C3CCOc4ccccc43)cc(N3CCOCC3)n2)cn1` (racemic) [Compound 143, 5-(4-(chroman-4-ylsulfonyl)-6-morpholinopyridin-2-yl)pyrimidin-2-amine]: the “PI3Ka IC50” value at PI3Kα turned out to be 0.0017 µM.
On the same count and under the same terms, with `Nc1ncc(-c2cc(S(=O)(=O)[C@H]3CCOC3)cc(N3CCOCC3)n2)cn1` [Compound 142a, (S)-5-(6-morpholino-4-((tetrahydrofuran-3-yl)sulfonyl)pyridin-2-yl)pyrimidin-2-amine] the figure was 0.0057 µM; with `CNc1ncc(-c2cc(N3CCOCC3)cc(S(=O)(=O)Cc3ccccc3)c2)cn1` [Compound 31, 5-(3-(benzylsulfonyl)-5-morpholinophenyl)-N-methylpyrimidin-2-amine], 0.66 µM.
On the same count and under the same terms, with `Nc1ncc(-c2cc(S(=O)(=O)c3ccccc3)cc(N3CC4CCC(C3)O4)n2)cn1` [Compound 151, 5-(6-(8-oxa-3-azabicyclo[3.2.1]octan-3-yl)-4-(phenylsulfonyl)pyridin-2-yl)pyrimidin-2-amine] the figure was 0.83 µM.
